Assay [1] has as its target T1, ErbB3(667-1053) protein (Her3) (Homo sapiens, UniProt P21860).
T1 construct: Purified ErbB3(667-1053) protein was obtained from Invitrogen; purchased Invitrogen
T1 sequence (P21860 667-1053): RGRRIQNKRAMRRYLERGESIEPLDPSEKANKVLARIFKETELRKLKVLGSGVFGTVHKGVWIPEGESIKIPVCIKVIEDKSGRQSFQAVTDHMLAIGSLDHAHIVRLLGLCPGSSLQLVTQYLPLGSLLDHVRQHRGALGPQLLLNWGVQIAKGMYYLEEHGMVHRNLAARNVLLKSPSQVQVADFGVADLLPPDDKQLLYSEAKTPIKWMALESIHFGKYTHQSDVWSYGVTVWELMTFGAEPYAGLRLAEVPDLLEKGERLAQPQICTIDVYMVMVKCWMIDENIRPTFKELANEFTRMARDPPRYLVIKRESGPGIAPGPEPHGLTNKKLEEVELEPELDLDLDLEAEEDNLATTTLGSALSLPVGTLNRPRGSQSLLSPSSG
Nature of the assay: LanthaScreen Eu kinase binding assay (Her3 ATP-site binding). As to conditions: binding to the ATP-site of Her3. How it is done: To discover chemical starting points for developing Her3 inhibitors, the inventors screened a library of 1,500 kinase-directed compounds using the LanthaScreen™ Eu methodology for compounds that could bind to the ATP-site of Her3. […] See, e.g., Stachlewitz et al., J Pharmacol Exp Ther. (2005) 315:36-41.
FIG. 2 depicts binding affinity data for exemplary compounds of Formula (II). Binding affinity (IC50) was measured by Invitrogen LanthaScreen™ Eu kinase binding assay which is based on the binding and displacement of Alexa Fluor 647 labeled ATP-competitive kinase inhibitor scaffold (Kinase Tracer 178). Binding of the tracer to the kinase is detected using a europium-labeled anti-tag antibody (anti-GST). The binding of both the tracer and antibody to the kinase results in a high degree of FRET (fluorescenece resonance energy transfer) from the europium donor fluorophore to the Alexa Fluor 647 acceptor fluoropore on the kinase tracer. […] This centrifugation step will eliminate spurious data points that can arise on occasion due to any particulates in the product. • (3) Add 5 ul the mixture of ErbB3 protein and Eu-anti-GST to 5 ul test compound solution per well in coming 384 plates. • (4) Add 5 ul tracer 178 at concentration of 39 nM per well. • (5) Incubate for 3 hours at 4° C. and read plate with Perkin Elmer EnVision. […]
A general note: TR-FRET usually uses a lanthanide donor and a delayed reading to cut background.

In assay [2] the test system is Her3-addicted cells. Nature of the assay: Her3-dependent growth / viability of Her3-addicted cells. The class given is cell-based. The text has this: (§1) Without wishing to be bound by any particular theory, the inventors hypothesize that this lack of inhibition is the result of poor cell penetration of TX2-62-1 due to its high molecular weight (MW=828.5). The inventors tested this hypothesis by designing a strategy whereby the two halves of TX2-62-1 (TX2-49-1 and TX2-57-1) were brought together inside of a cell via oxime formation. See Scheme 1 below.
FIG. 3 depicts anti-proliferation data for exemplary compounds of Formula (II). The anti-proliferation assay was carried out by using 96 well white bottom plates. 2000-4000 cells were seeded per well, and the medium volume per well was about 100 ul. Incubate for 3 days after adding and titrating indicated concentration of compounds. The cell viability was test by CellTiter-Glo® Luminescent Assay. In a typical experiment, add 10 ul CellTiter-Glo® reagent per well. Mix and shake the plate for 2 minutes to induce cell lysis at room temperature. Allow the plate to incubate at room temperature for approximately 10 minutes to stabilize luminescent signal. Read plate with Perkin Elmer EnVision. The cell numbers were normalized by the DMSO control. And the EC50s were calculated by GraphPad Prism.

Assay [3] concerns the target T2, Her3 (Homo sapiens, UniProt P21860).
T2 construct: endogenous in cells; host or cells: PC9 GR4
Nature of the assay: Her3 protein degradation in cells. The class given is cell-based. On the procedure:
as §1
(§2) PC9 Gefitinib Resistant 4 (GR4) cells were cultured in 60 mm plate with 10% fetal bovine serum (FBS), Roswell Park Memorial Institute medium (RPMI) medium. When the confluence reached 80%, cells were treated with compounds in indicated concentration. After 4 hours, wash cells with medium for three times. Cells were cultured for another 4 hours, followed by 3 times PBS washes. Cells were lysed with lysis buffer (25 mM Tris-HCl pH 7.4, 150 mM NaCl, 1 mM EDTA, 1% NP-40, 5% glycerol, Roche PhosSTOP phosphatase inhibitor cocktail tablets and Roche Complete Protease inhibitor cocktail tablets). […]
(§3) With the spectrophotometer set to 562 nm, zero the instrument on a cuvette filled only with water. Subsequently, measure the absorbance of all the samples with 10 minutes. Subtract the average 562 nm absorbance measurement of the Blank standard replicates from the 562 nm absorbance measurement of all other individual standard and unknown sample replicates. […]

For assay [4], the system named is downstream effectors of Her3, such as Erk and Akt. In words: Phosphorylation of downstream effectors of Her3 (Erk, Akt) in cells. It counts as cell-based. As to conditions: TX2-62-1 formed inside the cell from TX2-49-1 and TX2-57-1 via oxime formation. How it is done: as §1, §2, §3
Setting [5] is: TX2-62-1 formed inside the cell from TX2-49-1 and TX2-57-1 via oxime formation.

The values below come from patent USRE48175E1, “Hydrophobically tagged small molecules as inducers of protein degradation” (Dana-Farber Cancer Institute, Inc., priority 2012, dated 2020).

T2 sequence (P21860 20-1342): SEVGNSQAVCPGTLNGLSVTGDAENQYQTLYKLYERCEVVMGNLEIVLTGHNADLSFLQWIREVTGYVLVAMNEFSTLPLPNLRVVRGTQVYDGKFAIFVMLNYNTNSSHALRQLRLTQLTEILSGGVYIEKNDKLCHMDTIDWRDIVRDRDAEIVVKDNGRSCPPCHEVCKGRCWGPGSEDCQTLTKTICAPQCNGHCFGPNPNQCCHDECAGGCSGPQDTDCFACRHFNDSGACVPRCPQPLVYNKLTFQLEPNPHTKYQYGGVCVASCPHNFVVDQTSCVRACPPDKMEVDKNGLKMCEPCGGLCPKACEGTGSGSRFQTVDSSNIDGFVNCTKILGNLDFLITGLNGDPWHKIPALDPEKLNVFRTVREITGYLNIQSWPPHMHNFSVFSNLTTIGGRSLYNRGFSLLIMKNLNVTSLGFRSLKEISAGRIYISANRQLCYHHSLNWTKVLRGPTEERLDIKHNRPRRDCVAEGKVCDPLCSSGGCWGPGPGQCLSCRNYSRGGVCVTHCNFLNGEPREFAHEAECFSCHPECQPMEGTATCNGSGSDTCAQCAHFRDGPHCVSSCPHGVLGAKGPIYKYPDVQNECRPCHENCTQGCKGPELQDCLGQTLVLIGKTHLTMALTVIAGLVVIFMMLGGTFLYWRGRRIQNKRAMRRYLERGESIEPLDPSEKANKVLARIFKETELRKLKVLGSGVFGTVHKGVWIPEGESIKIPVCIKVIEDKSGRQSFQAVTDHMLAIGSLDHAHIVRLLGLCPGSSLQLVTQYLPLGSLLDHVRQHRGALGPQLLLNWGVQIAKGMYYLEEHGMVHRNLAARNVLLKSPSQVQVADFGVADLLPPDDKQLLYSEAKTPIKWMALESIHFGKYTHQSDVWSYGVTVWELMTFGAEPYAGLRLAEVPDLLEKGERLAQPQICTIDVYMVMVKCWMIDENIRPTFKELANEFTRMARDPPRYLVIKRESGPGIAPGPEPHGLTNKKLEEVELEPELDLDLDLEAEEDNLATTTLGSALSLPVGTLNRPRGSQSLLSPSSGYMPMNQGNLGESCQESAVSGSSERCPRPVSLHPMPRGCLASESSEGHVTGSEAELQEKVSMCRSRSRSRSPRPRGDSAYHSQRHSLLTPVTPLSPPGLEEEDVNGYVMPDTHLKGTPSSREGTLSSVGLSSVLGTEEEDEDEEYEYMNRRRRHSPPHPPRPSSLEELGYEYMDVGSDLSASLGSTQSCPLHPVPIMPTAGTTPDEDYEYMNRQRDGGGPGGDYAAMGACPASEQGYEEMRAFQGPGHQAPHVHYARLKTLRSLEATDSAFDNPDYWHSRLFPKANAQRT

For `COc1cc(-c2nn(C3CCC(N4CCN(C(C)=O)CC4)CC3)c3ncnc(N)c23)ccc1NC(=O)c1cc2ccccc2n1C` (centres unmarked) [KIN001-111, reference compound], the Her3 binding entry in assay [1] is recorded as “most potent Her3 binder”.

Turning to `C=CC(=O)Nc1cc(-c2nn(C3CCC(N4CCN(C/C(C)=N/OCCNC(=O)CC5C6CC7CC(C6)CC5C7)CC4)CC3)c3ncnc(N)c23)ccc1Oc1ccccc1` (centres unmarked) [TX2-62-1], in assay [2] (setting [5]), the “viability of Her3-addicted cells” value is “loss of viability of Her3-addicted cells”. Moreover, in assay [2] (after TX2-62-1 was washed out), the “cell proliferation after washout” value is reported as “cell proliferation resumed”. In assay [2] (compound added as preformed molecule), the “inhibition of Her3-dependent growth” value was “did not inhibit Her3-dependent growth”. Besides, the “degradation of Her3” value in assay [3] (setting [5]) is “efficient degradation of Her3”. Besides, the “Her3 protein level after washout” value in assay [3] (after TX2-62-1 was washed out) is “Her3 protein was resynthesized”. The Her3 binding entry in assay [1] was “maintained potent and covalent Her3 binding ability”. In addition, in assay [4], the “inhibition of Her3-dependent signaling” value is “inhibition of Her3-dependent signaling”.
